PubChem BioAssay (NCI)
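A five-concentration, 48-hour dose response in 96-well plates underlies each endpoint, interpolated linearly between surrounding concentrations. TGI denotes the concentration required for complete inhibition of growth.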

Experiments:
Experiment in all cases: inhibition of tumour cell growth, NCI panel, 48 h
786-0 renal = test system: 786-0 renal
A498 renal = test system: A498 renal
A549 NSCLC = test system: A549 NSCLC
ACHN renal = test system: ACHN renal
BT-549 breast = test system: BT-549 breast
CCRF-CEM leukemia = test system: CCRF-CEM leukemia
COLO 205 colon = test system: COLO 205 colon
DU-145 prostate = test system: DU-145 prostate
EKVX NSCLC = test system: EKVX NSCLC
HCT-116 colon = test system: HCT-116 colon
HL-60(TB) leukemia = test system: HL-60(TB) leukemia
HOP-62 NSCLC = test system: HOP-62 NSCLC
HS 578T breast = test system: HS 578T breast
HT29 colon = test system: HT29 colon
IGROV1 ovarian = test system: IGROV1 ovarian
K-562 leukemia = test system: K-562 leukemia
KM12 colon = test system: KM12 colon
LOX IMVI melanoma = test system: LOX IMVI melanoma
M14 melanoma = test system: M14 melanoma
MCF7 breast = test system: MCF7 breast
MDA-MB-231 breast = test system: MDA-MB-231 breast
MDA-MB-435 = test system: MDA-MB-435
MDA-N = test system: MDA-N
MOLT-4 leukemia = test system: MOLT-4 leukemia
NCI-H226 lung = test system: NCI-H226 lung
NCI-H23 lung = test system: NCI-H23 lung
NCI/ADR-RES ovarian = test system: NCI/ADR-RES ovarian
OVCAR-3 ovarian = test system: OVCAR-3 ovarian
OVCAR-5 ovarian = test system: OVCAR-5 ovarian
OVCAR-8 ovarian = test system: OVCAR-8 ovarian
PC-3 prostate = test system: PC-3 prostate
RPMI-8226 leukemia = test system: RPMI-8226 leukemia
RXF 393 renal = test system: RXF 393 renal
SF-268 CNS = test system: SF-268 CNS
SF-295 CNS = test system: SF-295 CNS
SF-539 CNS = test system: SF-539 CNS
SK-MEL-2 melanoma = test system: SK-MEL-2 melanoma
SK-MEL-28 melanoma = test system: SK-MEL-28 melanoma
SK-MEL-5 melanoma = test system: SK-MEL-5 melanoma
SK-OV-3 ovarian = test system: SK-OV-3 ovarian
SN12C renal = test system: SN12C renal
SNB-19 CNS = test system: SNB-19 CNS
SNB-75 CNS = test system: SNB-75 CNS
SW-620 colon = test system: SW-620 colon
T-47D breast = test system: T-47D breast
UACC-257 melanoma = test system: UACC-257 melanoma
UACC-62 melanoma = test system: UACC-62 melanoma
UO-31 renal = test system: UO-31 renal
CAKI-1 renal = test system: CAKI-1 renal
HCC-2998 colon = test system: HCC-2998 colon
HCT-15 colon = test system: HCT-15 colon
HOP-92 NSCLC = test system: HOP-92 NSCLC
MALME-3M melanoma = test system: MALME-3M melanoma
NCI-H460 lung = test system: NCI-H460 lung
NCI-H522 lung = test system: NCI-H522 lung
OVCAR-4 ovarian = test system: OVCAR-4 ovarian
TK-10 renal = test system: TK-10 renal
U251 CNS = test system: U251 CNS

## S=C1NC2=C(COc3ccccc32)C(c2ccc(Cl)cc2)N1 (configuration not stated)
786-0 renal
  TGI: 34.5 µM
A498 renal
  TGI: 39.1 µM
A549 NSCLC
  TGI: 48.2 µM
ACHN renal
  TGI: 43.6 µM
BT-549 breast
  TGI: 41.5 µM
CCRF-CEM leukemia
  TGI: 64.7 µM
COLO 205 colon
  TGI: 36.9 µM
DU-145 prostate
  TGI: 35.7 µM
EKVX NSCLC
  TGI: 34.2 µM
HCT-116 colon
  TGI: 28.9 µM
HL-60(TB) leukemia
  TGI: 43.3 µM
HOP-62 NSCLC
  TGI: 31 µM
HS 578T breast
  TGI: 50.4 µM
HT29 colon
  TGI: 31.7 µM
IGROV1 ovarian
  TGI: 31.6 µM
K-562 leukemia
  TGI: 38.1 µM
KM12 colon
  TGI: 32.7 µM
LOX IMVI melanoma
  TGI: 30.3 µM
M14 melanoma
  TGI: 34.5 µM
MCF7 breast
  TGI: 38.4 µM
MDA-MB-231 breast
  TGI: 34 µM
MDA-MB-435
  TGI: 58.2 µM
MDA-N
  TGI: 29.9 µM
MOLT-4 leukemia
  TGI: 38.7 µM
NCI-H226 lung
  TGI: 36 µM
NCI-H23 lung
  TGI: 45.9 µM
NCI/ADR-RES ovarian
  TGI: 41.3 µM
OVCAR-3 ovarian
  TGI: 28.7 µM
OVCAR-5 ovarian
  TGI: 30.7 µM
OVCAR-8 ovarian
  TGI: 41.7 µM
PC-3 prostate
  TGI: 26.2 µM
RPMI-8226 leukemia
  TGI: 22.4 µM
RXF 393 renal
  TGI: 37.4 µM
SF-268 CNS
  TGI: 39.7 µM
SF-295 CNS
  TGI: 29 µM
SF-539 CNS
  TGI: 34.9 µM
SK-MEL-2 melanoma
  TGI: 29 µM
SK-MEL-28 melanoma
  TGI: 46.8 µM
SK-MEL-5 melanoma
  TGI: 30.5 µM
SK-OV-3 ovarian
  TGI: 35.8 µM
SN12C renal
  TGI: 8.64 µM
SNB-19 CNS
  TGI: 45.3 µM
SNB-75 CNS
  TGI: 38 µM
SW-620 colon
  TGI: 78.8 µM
T-47D breast
  TGI: 45 µM
UACC-257 melanoma
  TGI: 41.6 µM
UACC-62 melanoma
  TGI: 34.7 µM
UO-31 renal
  TGI: 35.1 µM

## O=c1[nH]c2ccccc2c2nc3ccccc3n12
786-0 renal
  TGI: > 100 µM
A498 renal
  TGI: > 100 µM
A549 NSCLC
  TGI: > 100 µM
ACHN renal
  TGI: > 100 µM
BT-549 breast
  TGI: > 100 µM
CAKI-1 renal
  TGI: 93.7 µM
CCRF-CEM leukemia
  TGI: > 100 µM
COLO 205 colon
  TGI: > 100 µM
DU-145 prostate
  TGI: > 100 µM
EKVX NSCLC
  TGI: > 100 µM
HCC-2998 colon
  TGI: > 100 µM
HCT-116 colon
  TGI: > 100 µM
HCT-15 colon
  TGI: > 100 µM
HL-60(TB) leukemia
  TGI: > 100 µM
HOP-62 NSCLC
  TGI: > 100 µM
HOP-92 NSCLC
  TGI: > 100 µM
HS 578T breast
  TGI: > 100 µM
HT29 colon
  TGI: > 100 µM
IGROV1 ovarian
  TGI: > 100 µM
K-562 leukemia
  TGI: > 100 µM
KM12 colon
  TGI: > 100 µM
LOX IMVI melanoma
  TGI: > 100 µM
M14 melanoma
  TGI: > 100 µM
MALME-3M melanoma
  TGI: 72.7 µM
MCF7 breast
  TGI: > 100 µM
MDA-MB-231 breast
  TGI: > 100 µM
MDA-MB-435
  TGI: > 100 µM
MDA-N
  TGI: > 100 µM
MOLT-4 leukemia
  TGI: > 100 µM
NCI-H23 lung
  TGI: > 100 µM
NCI-H460 lung
  TGI: > 100 µM
NCI-H522 lung
  TGI: 28.2 µM
NCI/ADR-RES ovarian
  TGI: > 100 µM
OVCAR-3 ovarian
  TGI: > 100 µM
OVCAR-4 ovarian
  TGI: 14 µM
OVCAR-5 ovarian
  TGI: > 100 µM
OVCAR-8 ovarian
  TGI: > 100 µM
PC-3 prostate
  TGI: > 100 µM
RPMI-8226 leukemia
  TGI: > 100 µM
RXF 393 renal
  TGI: > 100 µM
SF-268 CNS
  TGI: > 100 µM
SF-295 CNS
  TGI: > 100 µM
SF-539 CNS
  TGI: 69.1 µM
SK-MEL-5 melanoma
  TGI: > 100 µM
SK-OV-3 ovarian
  TGI: 49.7 µM
SN12C renal
  TGI: > 100 µM
SNB-19 CNS
  TGI: > 100 µM
SW-620 colon
  TGI: > 100 µM
T-47D breast
  TGI: > 100 µM
TK-10 renal
  TGI: > 100 µM
U251 CNS
  TGI: > 100 µM
UACC-257 melanoma
  TGI: > 100 µM
UACC-62 melanoma
  TGI: > 100 µM
UO-31 renal
  TGI: > 100 µM
